Converted amounts (≈) assume the structure as drawn. “And” between values parts separate entries of the source, which are not always exact repeats. Equal entries are not always repeated. Blank lines part the entries; values can stand above or below the compound they belong to.
Legend:
Experiment in all cases: ≥ marks a high value that may be exact or a test limit, other limits are often not marked, values filed in µg/mL are converted to µM
[1] = test system: Chromobacterium violaceum ATCC 12472
[2] = test system: Staphylococcus aureus NCTC 10788
[3] = test system: Enterococcus faecalis NCTC 12697
[4] = test system: Staphylococcus aureus ATCC 43300
[5] = test system: Candida albicans NCPE 1467
[6] = test system: Pseudomonas aeruginosa ATCC 27853
[7] = test system: Staphylococcus aureus NCTC 12493
[8] = test system: Escherichia coli NCTC 10418
[9] = test system: Streptococcus mutans ATCC 25175
[10] = test system: Staphylococcus aureus ATCC 12600
[11] = test system: Escherichia coli ATCC 25922
[12] = test system: Staphylococcus aureus 1550
[13] = test system: Pseudomonas aeruginosa ATCC 9027
[14] = test system: Micrococcus luteus ATCC 9341
[15] = test system: Staphylococcus aureus ATCC 6538
[16] = test system: Escherichia coli ATCC 2592
[17] = test system: Pseudomonas aeruginosa
[18] = test system: Streptococcus pneumoniae TIGR4
[19] = test system: Escherichia coli
[20] = test system: Xanthomonas vesicatoria
[21] = test system: Xanthomonas oryzae pv. oryzae
[22] = test system: Staphylococcus aureus
[23] = test system: Xanthomonas campestris pv. campestris
[24] = test system: Streptococcus pyogenes AP1
[25] = test system: Staphylococcus aureus ATCC 29213
[26] = test system: Pseudomonas syringae
[27] = test system: Candida albicans SC5314
[28] = test system: Klebsiella pneumoniae
[29] = test system: Cryptococcus neoformans var. grubii H99
[30] = test system: Staphylococcus epidermidis ATCC 12228
[31] = test system: Escherichia coli UB1005
[32] = test system: Bacillus subtilis CMCC 63501
[33] = test system: Salmonella enterica subsp. enterica serovar Typhimurium ATCC 14028
[34] = test system: Salmonella typhimurium ATCC 7731
[35] = test system: Micrococcus luteus ATCC 49732
[36] = test system: Aeromonas hydrophila ATCC 35654
[37] = test system: Staphylococcus aureus ATCC 25923
[38] = test system: Lacticaseibacillus rhamnosus 1.0911
[39] = test system: Lacticaseibacillus rhamnosus 7469
[40] = test system: Lacticaseibacillus rhamnosus 1.0385
[41] = test system: Lactiplantibacillus plantarum 8014
[42] = test system: Lacticaseibacillus rhamnosus 1.0925
[43] = test system: Lacticaseibacillus rhamnosus 1.0386

- MIC [1]: ≥ 205 µM
- MIC [2]: 2 µM (≈ 4.99 µg/mL)
- MIC [3]: 12.8 µM (≈ 31.9 µg/mL)
- MIC [4]: 51.3 µM (≈ 128 µg/mL)
- MIC [5]: 4 µM (≈ 9.97 µg/mL)
- MIC [6]: 32 µM (≈ 79.8 µg/mL)
- MIC [7]: 4 µM (≈ 9.97 µg/mL)
- MIC [8]: 8 µM (≈ 19.9 µg/mL)
SMILES: CC[C@H](C)[C@H](NC(=O)[C@H](C)NC(=O)[C@H](C)NC(=O)[C@@H]1CCCN1C(=O)[C@@H](NC(=O)[C@H](CC(C)C)NC(=O)[C@H](CCCCN)NC(=O)[C@H](CO)NC(=O)[C@H](C)NC(=O)[C@@H](NC(=O)[C@H](CCCCN)NC(=O)[C@H](Cc1ccccc1)NC(=O)[C@H](CC(C)C)NC(=O)[C@H](C)NC(=O)CNC(=O)[C@H](CC(C)C)NC(=O)[C@@H](N)Cc1ccccc1)C(C)C)C(C)C)C(=O)N[C@H]1CSSC[C@@H](C(=O)O)NC(=O)[C@H](CCCCN)NC(=O)[C@H](CCCCN)NC(=O)[C@H](CO)NC(=O)[C@H]([C@@H](C)CC)NC(=O)[C@H](CO)NC1=O [FLGALFKVASKLVPAAICSISKKC]

SMILES: CC[C@H](C)[C@H](NC(=O)[C@H](C)NC(=O)CNC(=O)[C@H](Cc1ccccc1)NC(=O)[C@H](CC(C)C)NC(=O)CN)C(=O)N[C@@H](C)C(=O)NCC(=O)N[C@@H](Cc1ccccc1)C(=O)N[C@H](C(=O)N[C@@H](CCCCN)C(=O)N[C@@H](CCCCN)C(=O)NCC(=O)N[C@@H](Cc1c[nH]c2ccccc12)C(=O)N1CCC[C@H]1C(=O)NCC(=O)N[C@@H](CC(C)C)C(=O)N[C@H](C(=O)N[C@@H](CCCCN)C(=O)NCC(N)=O)C(C)C)[C@@H](C)CC [GLFGAIAGFIKKGWPGLVKG]
- MIC [9]: 1.9 µM (≈ 3.83 µg/mL)
- MIC [10]: 3.9 µM (≈ 7.86 µg/mL)
- MIC [6]: 15.5 µM (≈ 31.2 µg/mL)
- MIC [11]: 7.8 µM (≈ 15.7 µg/mL)

- MIC [12]: 17.6 µM (≈ 22 µg/mL)
- MIC [13]: 4 µM (≈ 5 µg/mL)
- MIC [14]: 3.2 µM (≈ 4 µg/mL)
- MIC [15]: 2.49 µM (≈ 3.12 µg/mL)
- MIC [16]: 8 µM (≈ 10 µg/mL)
SMILES: CC(C)[C@H](NC(=O)[C@H](CCCCN)NC(=O)[C@H](Cc1ccccc1)NC(=O)[C@@H](NC(=O)[C@@H](NC(=O)[C@H](CCCCN)NC(=O)[C@@H](N)CCCCN)C(C)C)C(C)C)C(=O)N[C@@H](CCCCN)C(=O)N[C@@H](Cc1ccccc1)C(=O)N[C@@H](CCCCN)C(=O)O [KKVVFKVKFK]

- MIC [17]: 14.1 µM (≈ 50.8 µg/mL)
- MIC [18]: 5 µM (≈ 18 µg/mL)
- MIC [19]: 3.54 µM (≈ 12.7 µg/mL)
- MIC [20]: 1 µM (≈ 3.6 µg/mL)
- MIC [21]: 5 µM (≈ 18 µg/mL)
- MIC [22]: 5 µM (≈ 18 µg/mL)
- MIC [23]: 5 µM (≈ 18 µg/mL)
- MIC [24]: 10 µM (≈ 36 µg/mL)
- MIC [25]: 5 µM (≈ 18 µg/mL)
- MIC [26]: 5 µM (≈ 18 µg/mL)
- MIC [27]: 25 µM and ≥ 50 µM
- MIC [6]: 10 µM (≈ 36 µg/mL)
- MIC [28]: 10 µM and 25 µM
- MIC [29]: 25 µM and ≥ 50 µM
- MIC [11]: 10 µM (≈ 36 µg/mL)
SMILES: CC[C@H](C)[C@H](NC(=O)[C@H](CCC(=O)O)NC(=O)[C@H](Cc1ccc(O)cc1)NC(=O)[C@@H](N)CCCCN)C(=O)N[C@H](C(=O)N[C@H](C(=O)N[C@H](C(=O)N[C@@H](Cc1cnc[nH]1)C(=O)N[C@@H](CC(N)=O)C(=O)N[C@@H](CC(C)C)C(=O)N[C@@H](Cc1ccccc1)C(=O)N[C@@H](CCCN=C(N)N)C(=O)N[C@@H](CCCCN)C(=O)N[C@@H](CC(C)C)C(=O)N[C@H](C(=O)N[C@@H](Cc1cnc[nH]1)C(=O)N[C@@H](CCCN=C(N)N)C(=O)N[C@@H](CC(C)C)C(=O)N[C@@H](Cc1ccccc1)C(=O)N[C@@H](CCCN=C(N)N)C(=O)N[C@@H](CCCN=C(N)N)C(=O)N[C@@H](CC(N)=O)C(=O)N[C@@H](Cc1ccccc1)C(=O)NCC(=O)N[C@@H](Cc1ccc(O)cc1)C(=O)N[C@H](C(=O)N[C@@H](CC(C)C)C(=O)N[C@@H](CCCN=C(N)N)C(=O)O)[C@@H](C)O)[C@@H](C)O)[C@@H](C)CC)[C@@H](C)O)[C@@H](C)O [KYEITTIHNLFRKLTHRLFRRNFGYTLR]

- MIC [30]: > 128 µM
- MIC [31]: ≥ 128 µM
- MIC [32]: ≥ 128 µM
- MIC [25]: > 128 µM
- MIC [33]: > 128 µM
- MIC [34]: ≥ 128 µM
- MIC [6]: > 128 µM
- MIC [11]: > 128 µM
SMILES: CC[C@H](C)[C@H](NC(=O)[C@H](C)NC(=O)[C@H](CCCCN)NC(=O)[C@H](Cc1ccc(O)cc1)NC(=O)[C@@H](N)CC(C)C)C(=O)N[C@@H](CCCN=C(N)N)C(=O)N[C@@H](CCCN=C(N)N)C(=O)N[C@@H](CCCCN)C(N)=O [LYKAIRRK]

- MIC [35]: 20 µM (≈ 53 µg/mL)
- MIC [36]: 20 µM (≈ 53 µg/mL)
- MIC [37]: > 20 µM
- MIC [11]: > 20 µM
SMILES: CC(C)C[C@H](NC(=O)[C@H](Cc1cnc[nH]1)NC(=O)[C@H](C)NC(=O)[C@H](CCCCN)NC(=O)[C@H](CCCCN)NC(=O)[C@H](Cc1ccccc1)NC(=O)[C@H](CO)NC(=O)[C@H](CCCCN)NC(=O)[C@H](CC(=O)O)NC(=O)[C@H](Cc1cnc[nH]1)NC(=O)[C@H](Cc1c[nH]c2ccccc12)NC(=O)[C@H](CCCN=C(N)N)NC(=O)[C@H](CCC(N)=O)NC(=O)[C@H](CCC(N)=O)NC(=O)[C@H](CCCN=C(N)N)NC(=O)[C@@H](N)CCCN=C(N)N)C(=O)NCC(=O)N[C@H](C(=O)N[C@@H](C)C(=O)N[C@H](C(=O)N[C@@H](CCCCN)C(=O)N[C@@H](C)C(N)=O)C(C)C)[C@@H](C)O [RRQQRWHDKSFKKAHLGTAVKA]

- MIC [38]: ≥ 64 µM
- MIC [30]: 8 µM (≈ 15.2 µg/mL)
- MIC [39]: ≥ 64 µM
- MIC [40]: 16 µM (≈ 30.4 µg/mL)
- MIC [31]: ≥ 32 µM
- MIC [25]: 8 µM (≈ 15.2 µg/mL)
- MIC [4]: 8 µM (≈ 15.2 µg/mL)
- MIC [42]: ≥ 64 µM
- MIC [6]: 8 µM (≈ 15.2 µg/mL)
- MIC [43]: 16 µM (≈ 30.4 µg/mL)
- MIC [11]: 32 µM (≈ 60.8 µg/mL)
SMILES: NC(=O)[C@H](CCCN=C(N)N)NC(=O)[C@H](CCCN=C(N)N)NC(=O)[C@H](Cc1c[nH]c2ccccc12)NC(=O)[C@H](Cc1ccc(O)cc1)NC(=O)[C@H](Cc1c[nH]c2ccccc12)NC(=O)[C@H](Cc1c[nH]c2ccccc12)NC(=O)[C@H](Cc1c[nH]c2ccccc12)NC(=O)[C@H](Cc1ccc(O)cc1)NC(=O)[C@H](Cc1c[nH]c2ccccc12)NC(=O)[C@H](CCCN=C(N)N)NC(=O)[C@@H](N)CCCN=C(N)N [RRWYWWWYWRR]
- MIC [41]: 4 µM (≈ 7.6 µg/mL)

Source: DBAASP
